This assay has as its system T1, Lip5-DM (recombinant Lip5, CALip5).
T1 construct: putative 14-residue signal peptide removed; secreted from Pichia pastoris X-33 (pGAPZalphaA), about 50 kDa
Put plainly: p-nitrophenol release at […] nm, Lineweaver-Burk. As to conditions: 100 mM Na2HPO4-NaH2PO4 pH 6.0; kinetics run at 5, 15 and 25 °C, temperature of table values not stated. The assay is classed as biochemical, Candida albicans.
Turning to `CCCC(=O)Oc1ccc([N+](=O)[O-])cc1` [C4, p-NP-butyrate], the Michaelis-Menten constant (Km) was 410 µM.
As to `CCCCCCCC(=O)Oc1ccc([N+](=O)[O-])cc1` [C8, p-NP-caprylate], the Michaelis-Menten constant (Km) was found to be 270 µM.
For `CCCCCCCCCCCC(=O)Oc1ccc([N+](=O)[O-])cc1` [C12, p-NP-laurate] the value was 500 µM.
`CCCCCCCCCCCCCCCC(=O)Oc1ccc([N+](=O)[O-])cc1` [C16, p-NP-palmitate]: the Km was determined as 360 µM.

These data come from paper PMC3131601, “A Novel Cold-Active Lipase from Candida albicans: Cloning, Expression and Characterization of the Recombinant Enzyme” (International Journal of Molecular Sciences, 2011).
